Experiment [1] concerns RAW264.7. Description: Antiinflammatory activity against LPS-induced mouse RAW264.7 cells assessed as inhibition of NO production preincubated for 1 hr followed by LPS stimulation and measured after 24 hrs by Greiss reagent based assay. The experiment is classed as functional, cell-based.
The subject of experiment [2] is RAW264.7. The experiment can be described thus: Binding affinity to MD2 in mouse RAW264.7 cells assessed as inhibition of LPS/MD2 colocalization at 10 uM preincubated for 1 hr followed by incubation with FITC-conjugated LPS for 1 hr by DAPI staining based confocal microscopy. In kind it is cell-based. Particulars: time 2.0 hrs.
The test system of experiment [3] is RAW264.7. The experiment can be described thus: Antiinflammatory activity against LPS-induced mouse RAW264.7 cells assessed as reduction in IL-6 production at 10 uM preincubated for 1 hr followed by LPS stimulation and measured after 24 hrs by ELISA relative to control. The experiment is classed as functional. The settings on record: time 25 hrs.
For experiment [4], the system named is RAW264.7. The experiment can be described thus: Antiinflammatory activity against LPS-induced mouse RAW264.7 cells assessed as reduction in IL-6 production preincubated for 1 hr followed by LPS stimulation and measured after 24 hrs by ELISA. The experiment is classed as functional, cell-based. The settings on record: dose 2.5-10 µM, time 25.0 hrs.
Experiment [5] concerns RAW264.7. The experiment can be described thus: Antiinflammatory activity against LPS-induced mouse RAW264.7 cells assessed as reduction in TNF-alpha production preincubated for 1 hr followed by LPS stimulation and measured after 24 hrs by ELISA. In kind it is functional, cell-based. Particulars: dose 2.5-10 µM, time 25.0 hrs.
Experiment [6] concerns RAW264.7. Description: Antiinflammatory activity against LPS-induced mouse RAW264.7 cells assessed as reduction in TNF-alpha production at 10 uM preincubated for 1 hr followed by LPS stimulation and measured after 24 hrs by ELISA relative to control. The experiment is classed as functional. The settings on record: time 25 hrs.
For experiment [7], the system named is RAW264.7. Description: Antiinflammatory activity against LPS-induced mouse RAW264.7 cells assessed as downregulation of COX2 protein expression at 2.5 to 10 uM by western blot analysis. The experiment is classed as functional, cell-based. The settings on record: dose 2.5-10 µM.
The test system of experiment [8] is RAW264.7. Description: Antiinflammatory activity against LPS-induced mouse RAW264.7 cells assessed as downregulation of iNOS protein expression at 2.5 to 10 uM by western blot analysis. The experiment is classed as functional, cell-based. Particulars: dose 2.5-10 µM.
In experiment [9] the test system is RAW264.7. Description: Inhibition of MD2 in LPS-stimulated mouse RAW 264.7 cells assessed as reduction in p65 phosphorylation by western blot analysis. The settings on record: dose 2.5-10 µM.
Experiment [10] deals with RAW264.7. Description: Inhibition of MD2 in LPS-stimulated mouse RAW 264.7 cells assessed as reduction in IKKbeta phosphorylation by western blot analysis. Particulars: dose 2.5-10 µM.
Experiment [11] relates to RAW264.7. The experiment can be described thus: Inhibition of MD2 in LPS-stimulated mouse RAW264.7 cells assessed as reduction in p65 nuclear translocation by measuring red fluorescence intensity in nucleus at 10 uM preincubated for 1 hr followed by LPS stimulation and measured after 6 hrs by DAPI staining based confocal microscopy. The settings on record: time 7.0 hrs.

For experiment [12], the system named is RAW264.7. The experiment can be described thus: Downregulation of TLR4 expression in mouse RAW264.7 cells at 2.5 to 10 uM by western blot analysis. Particulars: dose 2.5-10 µM. In kind it is functional, cell-based.
Experiment [13] concerns RAW264.7. Description: Downregulation of MD2 expression in mouse RAW264.7 cells at 2.5 to 10 uM by western blot analysis. In kind it is functional, cell-based. Particulars: dose 2.5-10 µM.
The subject of experiment [14] is RAW264.7. The experiment can be described thus: Inhibition of MD2 in LPS-stimulated mouse RAW264.7 cells assessed as reduction in ERK phosphorylation at 2.5 to 10 uM measured by immunoblot analysis. Particulars: dose 2.5-10 µM.
The test system of experiment [15] is RAW264.7. The experiment can be described thus: Inhibition of MD2 in LPS-stimulated mouse RAW264.7 cells assessed as reduction in JNK phosphorylation at 2.5 to 10 uM measured by immunoblot analysis. The settings on record: dose 2.5-10 µM.
For experiment [16], the system named is RAW264.7. Description: Inhibition of MD2 in LPS-stimulated mouse RAW264.7 cells assessed as reduction in p38 phosphorylation at 2.5 to 10 uM measured by immunoblot analysis. The settings on record: dose 2.5-10 µM.
Experiment [17] relates to RAW264.7. The experiment can be described thus: Antiinflammatory activity against LPS-induced MD2-knockdown mouse RAW264.7 cells assessed as reduction in TNF-alpha secretion pretreated for 1 hr followed by LPS stimulation and measured after 24 hrs by ELISA. The experiment is classed as functional, cell-based. Particulars: time 25.0 hrs.
Experiment [18] has as its target T1, Toll-like receptor 4 (Mus musculus) (UniProt Q9QUK6).
T1 sequence (whole entry): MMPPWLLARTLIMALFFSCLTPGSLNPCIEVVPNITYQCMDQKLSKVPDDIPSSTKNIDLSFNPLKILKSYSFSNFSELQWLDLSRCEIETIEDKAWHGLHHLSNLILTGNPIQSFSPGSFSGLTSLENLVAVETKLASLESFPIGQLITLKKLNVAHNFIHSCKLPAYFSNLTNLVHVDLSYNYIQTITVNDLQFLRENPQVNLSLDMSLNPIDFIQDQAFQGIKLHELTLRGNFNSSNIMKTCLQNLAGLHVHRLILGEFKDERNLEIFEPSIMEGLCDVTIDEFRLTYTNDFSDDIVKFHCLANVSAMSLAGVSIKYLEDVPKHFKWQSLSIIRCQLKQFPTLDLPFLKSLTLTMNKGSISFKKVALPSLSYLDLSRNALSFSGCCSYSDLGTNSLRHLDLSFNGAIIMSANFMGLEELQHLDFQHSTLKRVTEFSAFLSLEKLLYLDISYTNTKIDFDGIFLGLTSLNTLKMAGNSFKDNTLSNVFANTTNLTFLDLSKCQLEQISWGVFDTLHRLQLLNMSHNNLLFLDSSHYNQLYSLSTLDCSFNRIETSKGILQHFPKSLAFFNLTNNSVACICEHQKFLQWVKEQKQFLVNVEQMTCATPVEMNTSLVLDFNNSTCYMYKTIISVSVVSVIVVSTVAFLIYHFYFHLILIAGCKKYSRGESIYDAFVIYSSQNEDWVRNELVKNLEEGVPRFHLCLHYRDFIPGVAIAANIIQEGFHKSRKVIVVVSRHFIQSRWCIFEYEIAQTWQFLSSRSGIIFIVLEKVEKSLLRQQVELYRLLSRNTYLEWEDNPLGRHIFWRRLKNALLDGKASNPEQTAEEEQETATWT
Description: Binding affinity to TLR4 in mouse RAW264.7 cells assessed as inhibition of LPS/TLR4 colocalization at 10 uM preincubated for 1 hr followed by incubation with FITC-conjugated LPS for 1 hr by DAPI staining based confocal microscopy. The settings on record: time 2.0 hrs. In kind it is cell-based.

Experiment [19] has as its system RAW264.7. Description: Antiinflammatory activity against LPS-induced MD2-knockdown mouse RAW264.7 cells assessed as reduction in TNF-alpha mRNA expression by qRT-PCR analysis. In kind it is functional, cell-based.
Experiment [20] deals with RAW264.7. Description: Antiinflammatory activity against LPS-induced MD2-knockdown mouse RAW264.7 cells assessed as reduction in IL-6 mRNA expression by qRT-PCR analysis. In kind it is functional, cell-based.
Experiment [21] concerns RAW264.7. Description: Antiinflammatory activity against LPS-induced MD2-knockdown mouse RAW264.7 cells assessed as reduction in COX-2 mRNA expression by qRT-PCR analysis. In kind it is functional, cell-based.
Experiment [22] relates to RAW264.7. The experiment can be described thus: Antiinflammatory activity against LPS-induced MD2-knockdown mouse RAW264.7 cells assessed as reduction in iNOS mRNA expression by qRT-PCR analysis. The experiment is classed as functional, cell-based.
In experiment [23] the test system is RAW264.7. Description: Inhibition of MD2 in mouse RAW264.7 cells assessed as reduction in LPS-induced TLR4/MD2 complex formation preincubated for 30 mins followed by LPS stimulation for 30 mins by co-immunoprecipitation analysis. The experiment is classed as cell-based. Particulars: dose 2.5-10 µM, time 60.0 min.
The species named for experiment [24] is Homo sapiens. The experiment can be described thus: Binding affinity to MD2 (unknown origin) assessed as association constant by surface plasmon resonance assay.
The species entered for experiment [25] is Homo sapiens. Description: Binding affinity to MD2 (unknown origin) assessed as dissociation constant by surface plasmon resonance assay.
Experiment [26] is described as follows: Binding affinity to MD2 (unknown origin) assessed as equilibrium dissociation constant by surface plasmon resonance assay. Also on record: species or system Homo sapiens.

The source made the active and inactive calls. The calls are words filed in the database; no cut-off is given here.

As to `C=CC(C)(C)c1[nH]c2cccc3c2c1C[C@@H]1[C@@H]3[C@@H](OC(C)=O)[C@H](C)CN1C`, in experiment [1], the IC50 was found to be 22.8 µM.

As for `C=CC(C)(C)C(=O)Nc1cccc2c1C(=O)C[C@@H]1[C@@H]2[C@@H](OC(C)=O)[C@H](C)CN1C`, the IC50 in experiment [1] was found to be 43.2 µM.

Consider `C=CC(C)(C)C(=O)Nc1cccc2c1C(=O)C[C@@H]1[C@H]2[C@H](OC(C)=O)[C@@H](C)CN1C`, for which the result in experiment [2], in experiment [7] and in experiment [8] was Active. Also, the inhibition at 10 µM in experiment [3] came out at 84%; in experiment [6], 68.2%. The 50% inhibitory concentration (IC50) in [1] was determined as 3.48 µM. Moreover, the Activity result in experiment [4] and in [5] was “Dose-Dependent Effect” throughout. For the same molecule, the inhibition entry in experiment [9], in experiment [10] and in [23] was “Dose-Dependent Effect” throughout. Also, the inhibition result in [11], in [12], in experiment [13], in experiment [14], in experiment [15] and in experiment [16] was “Active” in each case. Besides, the outcome in [17], in experiment [18], in experiment [19], in experiment [20], in [21] and in [22] was inactive. For the same molecule, the Ka in [24] is 373 M⁻¹ s⁻¹. Further, the Kdiss in experiment [25] stood at 0.0054 s⁻¹. Further, the Kd in [26] came out at 14.5 µM.

Consider `C=CC(C)(C)c1[nH]c2cccc3c2c1C[C@H]1NC[C@@H](C)[C@H](OC(C)=O)[C@H]31`, for which the 50% inhibitory concentration (IC50) in [1] turned out to be 60.4 µM.

With `C=CC(C)(C)C(=O)Nc1cccc2c1C(=O)C[C@H]1NC[C@H](C)[C@@H](OC(C)=O)[C@@H]21`, in experiment [1], the half-inhibitory concentration (IC50) worked out at 7.83 µM.

As for `C=CC(C)(C)C(=O)Nc1cccc2c1C(=O)C[C@H]1NC[C@@H](C)[C@H](OC(C)=O)[C@H]21`, the IC50 in experiment [1] is 53.3 µM.

On to `C=CC(C)(C)C(=O)Nc1cccc2c3cc(C)cn(C)c-3cc(=O)c12`, for which the IC50 in experiment [1] was 9.47 µM.

`COc1ccc2c(c1)c(CC(=O)O)c(C)n2C(=O)c1ccc(Cl)cc1` [INDOMETHACIN]: the IC50 in [1] is 11 µM.

These data come from ChEMBL document CHEMBL4831509, “Identification, semisynthesis, and anti-inflammatory evaluation of 2,3-seco-clavine-type ergot alkaloids from human intestinal fungus Aspergillus fumigatus CY018” (Eur J Med Chem, 2021).
